Experimental data taken from patent US3962238A, “Ethers of n-propanol amine” (Centre Europeen de Recherches Mauvernay "CERM", priority 1972, dated 1976).
“Also recorded” adds a separate entry of the source. Structures can show the parent of a compound that is named as a salt.

Experiments:
Format in all cases: in vivo
[1] = Cardiovascular activity on the chloralose-anaesthetised, artificially respirated dog (coronary sinus output, Pv O2, contraction amplitude, arterial pressure, rate of heart-beat); details: for AMPLITUDE OF VENTRICULAR CONTRACTION / ARTERIAL PRESSURE / CORONARY OUTPUT / RATE OF HEART-BEAT / SINUSAL Pv O2: maximum percentage variation relative to pre-treatment values
Protocol: The pharmacological activity of the compounds of the invention in the cardiovascular field was determined on the dog in the manner described below:
An incision is made in the right-hand chest wall of an animal, which has been anaesthetised with chloralose and given artificial respiration, to enable the blood from the venus sinus to be drawn off and the apparatus required to record the following parameters to be inserted in position:
a. Output of the coronary sinus;
b. Pv O2 of the blood from the coronary sinus; and
c. Amplitude of the contractions of the right ventricule.
At the same there were also measured:
d. Arterial pressure in a main carotid artery: and
e. The rate of heart-beat determined cardiotachometrically.
Table II which follows records the determinations made of the various parameters, the results being expressed as a maximum percentage variation relative to the pre-treatment values.

β-adrenergic receptors [2] = assay: Action on the β-adrenergic receptors: inhibition of cardiovascular effects of isoprenaline in anaesthetised dogs; details: dog, compound 5 mg/kg intravenous
Protocol: (§1) A stimulating electrode was placed in position on the right stellar ganglion of dogs anaesthetised as described above and for which there were recorded:
(§2) a. The arterial pressure,
(§3) b. Ventricular inotropism (the amplitude of contraction of the right ventricle), and
(§4) c. The rate of heart-beat.
(§5) The chest of the animals were not open and they were breathing freely.
(§6) The β-adrenergic receptors, both cardiac and vascular, were stimulated by electrical stimulation of the right stellar ganglion or by intravenous injection with isoprenaline (5 μg/kg).

β-adrenergic receptors [3] = assay: Action on the β-adrenergic receptors: inhibition of cardiac effects of stimulation of the right stellar ganglion in anaesthetised dogs; details: compound 5 mg/kg intravenous, average, dog
Protocol: It then seemed interesting, using compound No. 1, to seek the existence of an action on the β-adrenergic receptors in the manner outlined below:
as §1, §2, §3, §4, §5
as §6, with “μg/kg). The measurements were taken both before and after administration of compound No. 1 by the intravenous route in a dose of 5 mg/kg bodyweight.” for “μg/kg).”
The following Table III gives the average percentage inhibition of the cardiovascular effects of isoprenaline and of the cardiac effects of the stimulation of the right stellar ganglion.

[4] = isoprenaline 5 ug/kg intravenous, average

CC(C)COCC(CN1CCCC1)N(Cc1ccccc1)c1ccccc1 (centres unmarked) [Compound 1, 1-(3-isobutoxy-2-(phenylbenzyl)-amino)-propyl-pyrrolidino-hydrochloride]
AMPLITUDE OF VENTRICULAR CONTRACTION ([1]; 2.5 mg/kg intravenous): -0.7% | ARTERIAL PRESSURE ([1]; 2.5 mg/kg intravenous): -39.8% | CORONARY OUTPUT ([1]; 2.5 mg/kg intravenous): +51.2% | RATE OF HEART-BEAT ([1]; 2.5 mg/kg intravenous): -28.6% | SINUSAL Pv O2 ([1]; 2.5 mg/kg intravenous): +119.2% | AMPLITUDE OF VENTRICULAR CONTRACTION ([1]; 5 mg/kg intravenous): -22.3% | ARTERIAL PRESSURE ([1]; 5 mg/kg intravenous): -40.2% | CORONARY OUTPUT ([1]; 5 mg/kg intravenous): +36.9% | RATE OF HEART-BEAT ([1]; 5 mg/kg intravenous): -31.8% | SINUSAL Pv O2 ([1]; 5 mg/kg intravenous): +120.8% | oxygen content of the venous cardiac blood (in words) ([1]; intravenous): very considerable increase in the oxygen content of the venous cardiac blood | effect on stimulation of the β-adrenergic receptors (in words) (β-adrenergic receptors [2]; isoprenaline or right stellar ganglion stimulation, 5 mg/kg): partial inhibiting effect; also recorded: inhibiting effects with respect to the stimulation of the β-adrenergic receptors | PERCENTAGE INHIBITION OF Hypotension (β-adrenergic receptors [2]; [4]): -54% | PERCENTAGE INHIBITION OF Positive inotropic effect (β-adrenergic receptors [2]; [4]): -46.5% | PERCENTAGE INHIBITION OF Rate of Heart-beat (β-adrenergic receptors [2]; [4]): -32.7% | PERCENTAGE INHIBITION OF Positive inotropic effect (β-adrenergic receptors [3]): -21.3% | PERCENTAGE INHIBITION OF Rate of Heart-beat (β-adrenergic receptors [3]): -30%
